{"source": "patent US12077555B2", "about": "“STAT degraders and uses thereof” (Kymera Therapeutics, Inc., priority 2019, dated 2024)", "assay_type_in_all_cases": "cell-based", "key": {"[1]": {"system": "SU-DHL-1 cells", "test": "wash-out study in SU-DHL-1 cells", "details": "after 4 days", "experimental": "FIG. 10 depicts wash-out study results with I-103 at 24 hours (A) and 48 hours (B)."}, "[2]": {"system": "SOCS3", "test": "STAT3 RT-qPCR assay, SOCS3 mRNA", "details": "SU-DHL-1 cells", "experimental": "(§1) SU-DHL-1 cells were treated with compounds for a designed time. 0.3-0.6 mL lysis buffer with 2-mercaptoethanol was added to the collected cell pellet or monolayer cells. The cells were vortexed until the cell was dispersed and the cells appear lysed. One volume of 70% ethanol was added to each volume of cell homogenate and vortex. 700 μL of the sample was transferred to the spin cartridge and centrifuged at 12000 g for 15s at RT. The flow-through was discarded and the process repeated until the entire samples had been processed. 700 ul wash buffer I was added to the spin cartridge and centrifuged at 12000 g for 15s at RT and the flow-through was discarded. 500 μL wash buffer II with ethanol was added to the spin cartridge and centrifuged at 12000 g for 15s at RT and the flow-through was discarded. The process was then repeated. The spin cartridge was centrifuged at 12000 g for 2 min to dry the membrane with bound RNA. 30-100 μL RNase-free water was added to the center of the spin cartridge and incubated for 1 min at RT. […] The concentration of the RNA was quantitated using Nano-Drop. cDNA was formed from the RNA by reverse transcription and qPCR of the cDNA with primer of the gene of interest and housekeeping gene was preformed using the volumes below: […]"}, "[3]": {"system": "STAT3", "test": "STAT3 RT-qPCR assay, STAT3 mRNA", "details": "SU-DHL-1 cells, FIG. 5A, FIG. 15", "experimental": "as §1"}, "[4]": {"system": "DEL cells", "test": "CellTiter-Glo cell viability, DEL"}, "[5]": {"system": "KARPAS-299 cells", "test": "CellTiter-Glo cell viability, KARPAS-299"}, "[6]": {"system": "SU-DHL-1 cells", "test": "Wash-out study in SU-DHL-1 cells", "details": "1 uM compound for 24 and 48 hr, then wash-out; FIGS. 10 and 18", "experimental": "I-103 and I-174 were tested in the wash-out protocol.\n• Seed cell suspension in T75 flasks and treat with 0.1% DMSO and 1 uM compound for 24 and 48 hr. Day 0 • Collect cell suspension from the flasks in conical tubes after 24 and 48 hr, spin down at 1,000 rpm for 5 min. • Remove supernatant. Wash with PBS, spin down at 1,000 rpm for 5 min, repeat PBS wash one more time. • Seed the cells at 2,000 cells per well in 384-well plates for growth inhibition measurement via CellTiterGlo (CTG) and 10,000 cells per well in 96-well plates for STAT3 levels via MSD. • Measure T0 for CTG and collect pellets to measure levels of STAT3 by MSD Day 1-4 • Measure CTG every day for 4 days post wash-out. • Collect pellets and measure levels of STAT3 by MSD every day for 4 days post wash-out. Growth inhibition was normalized to T0 and graphed as % control."}, "[7]": {"biological_target": "STAT3 (Homo sapiens, UniProt P40763)", "sequence (P40763 whole entry)": "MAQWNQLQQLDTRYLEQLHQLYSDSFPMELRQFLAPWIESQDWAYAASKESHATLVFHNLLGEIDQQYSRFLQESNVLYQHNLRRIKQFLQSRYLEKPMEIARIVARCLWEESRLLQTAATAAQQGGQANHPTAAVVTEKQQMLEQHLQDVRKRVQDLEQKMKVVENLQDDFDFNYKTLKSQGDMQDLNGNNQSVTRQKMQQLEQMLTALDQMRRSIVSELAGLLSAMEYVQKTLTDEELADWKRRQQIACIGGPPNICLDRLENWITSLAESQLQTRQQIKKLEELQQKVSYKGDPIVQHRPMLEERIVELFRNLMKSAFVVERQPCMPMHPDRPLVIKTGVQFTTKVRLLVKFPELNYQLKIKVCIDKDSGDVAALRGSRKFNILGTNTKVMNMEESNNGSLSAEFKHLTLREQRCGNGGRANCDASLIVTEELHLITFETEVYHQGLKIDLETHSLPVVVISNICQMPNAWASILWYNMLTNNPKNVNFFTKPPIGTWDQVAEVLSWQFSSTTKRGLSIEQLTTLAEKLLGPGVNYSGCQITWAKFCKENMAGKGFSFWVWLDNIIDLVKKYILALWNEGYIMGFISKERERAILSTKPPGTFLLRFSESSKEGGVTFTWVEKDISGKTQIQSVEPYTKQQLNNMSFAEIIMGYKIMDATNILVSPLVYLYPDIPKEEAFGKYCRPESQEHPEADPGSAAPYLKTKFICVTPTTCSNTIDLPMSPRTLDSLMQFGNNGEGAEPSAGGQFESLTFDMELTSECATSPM", "test": "Deep tandem mass tag proteomics", "details": "Molm-16 and SU-DHL-1 cells, 8 hours, FIGS. 4 and 13", "experimental": "Total protein was isolated from cells (e.g., Molm-16 and SU-DHL-1) and treated with degrader for 8 hours. Vehicle (DMSO)-treated cells were used as controls. Protein lysates, 2 biological replicates per condition, were prepared at 4 C in 8M urea, 75 mM NaCl, 1 mM EDTA in 50 mM Tris HCl (pH 8), 10 mM NaF, phosphatase inhibitor cocktail 2 (1:100; Sigma, P5726) and cocktail 3 (1:100; Sigma, P0044), 2 μg/mL aprotinin (Sigma, A6103), 10 μg/mL Leupeptin (Roche, 11017101001), and 1 mM PMSF (Sigma, 78830). Lysates were spun at 20,000 rcf for 10 min and supernatant (containing extracted proteins) was transferred to a clean microcentrifuge tube. Protein concentrations were determined using the Pierce BCA assay. Protein lysates were reduced with 5 mM dithiothreitol (Thermo Scientific, 20291) for 45 min at room temperature and alkylated with 10 mM iodoacetamide (Sigma, A3221) for an additional 45 min. […] Online fractionation was performed using a nanoflow Proxeon EASY-nLC 1200 UHPLC system (Thermo Fisher Scientific) and separated peptides were analyzed on a benchtop Orbitrap Q Exactive plus mass spectrometer (Thermo Fisher Scientific). All data were analyzed using Spectrum Mill software package (Agilent Technologies). […] In total, 10,992 proteins were quantified. […]"}}, "data": [{"smiles": "Cn1c(=O)n(C2CCC(=O)NC2=O)c2ccc(C[C@H]3CC[C@@H](CC(=O)N4CC[C@H]5CC[C@@H](C(=O)N[C@@H](CCC(N)=O)C(=O)NC(c6ccccc6)c6ccccc6)N5C(=O)[C@@H](NC(=O)c5cc6cc(C(=O)P(=O)(O)O)ccc6[nH]5)C4)CC3)cc21", "note": "(stereo partly drawn) [Compound I-174, 2-[[(5S,8S,10aR)-8-[[(1S)-3-carbamoyl-1-(diphenylmethylcarbamoyl)propyl]carbamoyl]-6-oxo-3-[2-[(1s,4s)-4-[[1-(2,6-dioxopiperidin-3-yl)-3-methyl-2-oxo-1,3-benzodiazol-5-yl]methyl]cyclohexyl]acetyl]-octahydropyrrolo[1,2-a][1,5]diazocin-5-yl]carbamoyl]-1H-indole-5-carbonylphosphonic acid]", "values": [{"measurement": "growth and cell death after wash-out", "setting": "[1]; 24 hours wash-out", "value": "strong growth inhibition and potential cell death"}, {"measurement": "growth and cell death after wash-out", "setting": "[1]; 48 hours wash-out", "value": "complete growth inhibition and cell death"}, {"measurement": "IC50", "setting": "[2]; Homo sapiens, 24 hr", "value": 0.022, "unit": "µM"}, {"measurement": "STAT3-dependent gene expression of SOCS3", "setting": "[2]; FIG. 5A, FIG. 15", "value": "downregulates"}, {"measurement": "STAT3-dependent gene expression of STAT3", "setting": "[3]", "value": "downregulates"}, {"measurement": "IC50", "setting": "[4]; 96 h, ALCL (ALK+), Day 4, read-out: CTG, IC50 μM, Day 4", "value": 0.016, "unit": "µM"}, {"measurement": "CTG (% Max inh), Day 4", "setting": "[4]; ALCL (ALK+), Day 4", "value": "(95) %"}, {"measurement": "cell proliferation", "setting": "[4]; FIG. 16", "value": "inhibit"}, {"measurement": "IC50", "setting": "[5]; Homo sapiens, 96 h, KARPAS-299, ALCL (ALK+), Day 4, read-out: CTG, IC50 μM, Day 4", "value": 0.084, "unit": "µM"}, {"measurement": "CTG (% Max inh), Day 4", "setting": "[5]; KARPAS-299, ALCL (ALK+), Day 4", "value": "(90) %"}, {"measurement": "cell proliferation", "setting": "[5]; KARPAS-299, FIG. 16", "value": "inhibit"}, {"measurement": "viability of SU-DHL-1 cells after wash-out", "setting": "[6]", "value": "profound effects on the viability of SU-DHL-1 cells"}, {"measurement": "selectivity of degradation for STAT3 vs >10,000 other detected proteins", "setting": "[7]", "value": "highly selective for STAT3"}]}]}
